Measured values taken from publication PMC3001719, “The heme sensing response regulator HssR in Staphylococcus aureus but not the homologous RR23 in Listeria monocytogenes modulates susceptibility to the antimicrobial peptide plectasin” (BMC Microbiology, 2010).
“And” between values parts separate entries of the source, which are not always exact repeats. Equal entries are not always repeated.

Legend:
[1] = test system: hrtB and hssR expression in wild type S. aureus; assay: Expression of hrtB and hssR, northern blot and quantitative real-time PCR; type: cell-based, Staphylococcus aureus; conditions: plectasin 35 μg/ml, 10 and 90 minutes, northern blot and quantitative real-time PCR (P > 0.05)
Method: Wild type S. aureus and the hssR mutant were grown to an absorbance at 600 nm of 0.45 ± 0.1, samples were withdrawn for the isolation of RNA. Plectasin (35 μg/ml) was added to the growing culture, and after 10 and 90 minutes samples were also withdrawn. Cells were quickly cooled and lysed mechanically using the FastPrep machine (Bio101; Q-biogene), and RNA was isolated by the RNeasy kit (QIAGEN, Valencia, Calif.) according to the manufacturer's instructions. Northern Blotting: RNA was transferred to a nylon membrane (Boehringer Mannheim) by capillary blotting as previously described. Hybridization was performed using gene-specific probes that had been labelled with [^32P]dCTP using the Ready-to-Go DNA-labelling beads from Amersham Biosciences. Primers for probes amplifying hrtB and hssR: hrtB-1F:(5'[…]3'), hrtB-2R: (5'[…]3'), hssR-1F: (5'[…]3'), hssR-2R:(5' […]3'). All steps were repeated in two independent experiments giving similar results. Quantitative RT-PCR: RNA was treated with DNase and RevertAid™ H Minus first strand cDNA synthesis Kit (Fermentas). […] Statistical analysis on QRTPCR results using GraphPad prism5, 1Way Anova with Dunnett's Multiple comparison test (GraphPad Software, Inc) determined changes in expression comparing time 0 to time 10 minutes or 90 minutes.

[2] = test system: S. aureus 8325-4 wild type; assay: Growth in TSB with plectasin and/or hemin; type: cell-based, Staphylococcus aureus; conditions: plectasin 35 μg/ml, 37°C, absorbance at 600 nm
Method: (§1) Overnight cultures of S. aureus were diluted to an absorbance at 600 nm of 0.05 in TSB with and without 4 μM hemin and/or 35 μg/ml plectasin and grown at 37°C. Measurements of the absorbance were made every 30 minutes.

[3] = test system: S. aureus 8325-4 hssR mutant; assay: Growth in TSB with plectasin and/or hemin; type: cell-based, Staphylococcus aureus; conditions: plectasin 35 μg/ml, 37°C, absorbance at 600 nm, transduced 8325-4 hssR mutant
Method: as §1

[4] = test system: S. aureus wild type and hssR mutants; assay: Extracellular protein profile by SDS-PAGE; type: cell-based, Staphylococcus aureus; conditions: S. aureus wild type and hssR mutants grown with or without plectasin overnight at 37°C in TSB; data not shown
Method: Prewarmed TSB and BHI (25 ml) in a 250 ml Erlenmeyer flask was inoculated with S. aureus strains and L. monocytogenes strains, respectively. These flasks were grown with and without plectasin at 37°C overnight (≈ 17 h) with shaking. The next morning, the exact absorbance at 600 nm of the cultures was measured, and 15 ml of culture was centrifuged to precipitate the cells (6 000 RPM; 7 min; 0°C). The supernatant was transferred to a 50 ml Blue cap bottle (placed in an ice/water bath), and the extracellular proteins were precipitated by adding one volume of ice-cold 96% EtOH and left in the refrigerator overnight for proteins to precipitate. Precipitated proteins were collected by centrifugation (11,000 RPM; 30 min; 0°C). Protein pellets were suspended in a volume of 50 mM Tris-HCl (pH 6.8) adjusted to the original absorbance of the overnight culture so that 15 ml of overnight culture with absorbance at 600 nm of 5.0 was suspended in 0.8 ml of 50 mM Tris-HCl (pH 6.8). A sample of 15 μl of the protein extracts was analysed on NuPAGE® 4-12% Bis-Tris gels (Invitrogen) using the X Cell SureLock® Mini-Cell system (Invitrogen) as recommended by the supplier. The gels were Coomassie stained using GelCode® Blue Stain Reagent (Pierce).

L. monocytogenes = conditions: cited from earlier work
Excerpt: (§2) In the present study, we addressed the response of two human pathogens, S. aureus and L. monocytogenes to plectasin. […] In addition, the two bacteria represent different routes of infection and may be exposed to different arrays of HDPs. S. aureus is a hospital- and community-acquired pathogen that causes a wide range of diseases including septicaemia, toxic-shock syndrome and food poisoning ...

[5] = test system: methicillin resistant S. aureus (MRSA); conditions: cited from earlier work
Excerpt: as §2

[6] = test system: plasmid DNA (pBluescript II SK+); assay: DNA-binding analysis by in vitro gel retardation; conditions: 100 ng plasmid DNA with increasing amounts of peptide, 1 h at room temperature, data not shown
Method: Gel retardation analysis were performed as described by Nan et al by mixing 100 ng of plasmid DNA (pBluescript II SK^+(Stratagene)) with increasing amounts of peptide in 20 μl binding buffer (5% glycerol, 10 mM Tris, 1 mM EDTA, 1 mM dithiothreitol, 20 mM KCL and 50 μg ml^-1 bovine serum albumin). Reaction mixtures were incubated 1 h at room temperature and subjected to 1% agarose gel electrophoresis and visualised using ethidium bromide.

S. aureus hssR mutants = assay: MIC of hssR mutants compared to wild type; type: cell-based, Staphylococcus aureus; conditions: ratio of MIC, S. aureus hssR response regulator mutants vs wild type, regardless of the genetic background
Method: Minimal inhibitory concentrations (MIC) of plectasin, eurocin, protamine, novicidin, and novispirin G10 were determined using a microbroth dilution method. Colonies from a BHI plate incubated overnight at 37 °C were suspended in MHB pH 7.4 to an absorbance at 546 nm of 0.11-0.12 at 546 nm (approx. 1.0 × 10^8 CFU/ml) and diluted in MHB to a concentration of 5.0 × 10^5 CFU/ml. Ninety μl of bacterial suspension was incubated with 10 μl of peptide solution in polypropylene 96-well plates (Nunc, 442587) for 18-24 h at 37°C. The peptide solutions were made fresh on the day of assay. The range of concentrations assayed were 0.25-256 μg/ml for plectasin and eurocin, 0.125-128 μg/ml for protamine and novispirin G10, and 0.031-32 μg/ml for novicidin. MIC was the lowest peptide concentration at which visual growth was inhibited.

SMILES: CC[C@H](C)[C@@H]1NC(=O)[C@H](CO)NC(=O)[C@H](CCCCN)NC(=O)[C@@H]2CSSC[C@@H](C(=O)N[C@@H](Cc3ccc(O)cc3)C(=O)O)NC(=O)[C@H](CCCCN)NC(=O)[C@@H]3CSSC[C@H](NC(=O)[C@H](CCC(N)=O)NC(=O)[C@H](CCSC)NC(=O)[C@H](CC(=O)O)NC(=O)[C@H](CC(=O)O)NC(=O)[C@H](CCC(=O)O)NC(=O)[C@H](CC(=O)O)NC(=O)[C@H](Cc4c[nH]c5ccccc45)NC(=O)[C@@H]4CCCN4C(=O)CNC(=O)[C@H](CC(N)=O)NC(=O)[C@@H](NC(=O)CNC(=O)[C@H](Cc4ccccc4)NC(=O)CN)CSSC[C@H](NC(=O)[C@H](Cc4ccc(O)cc4)NC(=O)CNC(=O)CNC(=O)[C@H](CCCCN)NC(=O)[C@H](Cc4ccc(O)cc4)NC(=O)CNC(=O)[C@H](CCCCN)NC1=O)C(=O)N[C@@H](C)C(=O)N[C@@H](CCCCN)C(=O)NCC(=O)NCC(=O)N[C@@H](Cc1ccccc1)C(=O)N[C@@H](C(C)C)C(=O)N3)C(=O)N[C@@H](Cc1c[nH]cn1)C(=O)N[C@@H](CC(N)=O)C(=O)N[C@@H](Cc1c[nH]cn1)C(=O)N2 [plectasin]
- Expression of hrtB and hssR [1]: no change of expression
- Growth in the presence of plectasin [2]: inhibited the growth
- Growth in the presence of plectasin [3]: hardly affected the growth
- Abundance of extracellular proteins [4]: no difference in the abundance of extracellular proteins
- MIC (L. monocytogenes): above 64 mg/L
- MIC [5]: 16 to 32 µg/mL
- Binding to DNA [6]: unable to demonstrate binding
- Increased resistance of hssR mutants compared to the wild type (S. aureus hssR mutants): 2 to 4 fold and 2-4 fold
